In patent US20240277732A1, “COMPOSITIONS AND METHODS FOR TREATING BRAIN-GUT DISORDERS” (Enterin, Inc., priority 2018, published 2024):

Tests used:
PD population = conditions: short term placebo controlled trial; cited from earlier work
[1] = Intranasal pharmacokinetics in plasma; assay type: in vivo, Sprague Dawley rats; conditions: plasma, 0.5 mg/kg IN dose, SD rats
Excerpt: (§1) The purpose of this example was to evaluate the in vivo distribution and function of aminosterols, such as Aminosterol 1436 and squalamine, following intranasal administration. This experiment relates to the amount of drug needed to obtain a therapeutic result, based on an IN route of administration. The results described below detail that aminosterols such as Aminosterol 1436 act at the level of the hypothalamus following in vivo administration, regardless of the route of administration.

[2] = Intranasal pharmacokinetics in CSF; assay type: in vivo, Sprague Dawley rats; conditions: 0.5 mg/kg IN, SD rats
Excerpt: as §1

[3] = test system: patients with PD and constipation; test: Phase 2 trial Stage 2: bowel function under daily oral dosing (stool diary, PAC-QOL, PAC-SYM); assay type: in vivo, human; conditions: patients with baseline ≥1 CSBM/week
Experimental: Following successful screening, all subjects underwent a 14-day run-in period where the degree of constipation was assessed through a validated daily log (Zinsmeister et al. 2013) establishing baseline CSBMs/week. Subjects with an average of <3 CSBMs/week proceeded to dosing.
In Stage 2, 34 patients were evaluated.
The primary efficacy outcome variable was whether or not a subject was a “success” or “failure”. This is an endpoint based on subject diary entries for the “fixed dose” period prior to the endpoint assessment defined as average complete stool frequency increase by 1 or more over baseline, or 3 or more complete spontaneous stools/week. The subject was deemed a “success” if s/he met one or more of the criteria listed above, otherwise the subject was deemed a “failure”. The primary analysis was based on all subjects with a baseline assessment and an assessment at the end of the “fixed-dose” period and was a comparison of the proportion of successes with 0.10 (the null hypothesis corresponding to no treatment effect).

[4] = test system: myenteric intrinsic primary afferent neurons (IPANs); test: Whole-cell patch clamp of IPANs, divided hemi-dissection preparation of FVB PD mouse; assay type: cell-based
Experimental: Whole-cell Patch Clamp: Whole-cell patch clamp was performed on a hemi-dissected myenteric plexus preparation as previously described.
IPAN excitability: PD model mice have reduced IPAN excitability. To determine the mechanism by which squalamine stimulated intestinal motility, electrophysiological studies on single neurons within the intact myenteric plexus of PD mice and corresponding control animals were conducted using published methods. In this series of studies a mouse α-synuclein knock-out model that expressed four copies of human A53T α-synuclein driven by the endogenous α-synuclein promoter (FVB PD), with the control (FVB control) represented by a strain engineered to express two copies of the normal human α-synuclein protein, was used.
IPANs from FVB PD animals were less excitable than IPANs recorded from FVB controls. The sample AP threshold (mean SD (N)) was 46% smaller for FVB control (32.2±20.0 (16)) compared to FVB PD (59.2±46.1 (20)). The number of action potentials produced by a current 2× the threshold intensity was 145% larger, 3.9±5.1 (16) for FVB control versus 1.6±0.6 (19) for FVB PD. The area under of the curve for the sAHP was 42% smaller −49.5±63.7 (16) versus −85.5±78.2 (19). RMP was depolarized by 10% for the FVB control, −56±10 (16) versus −62±6 (20).
Myenteric Primary Afferent Neuron Excitation: Squalamine excites myenteric primary afferent neurons. The effect of squalamine on the excitability of an isolated intestinal segment from the FVB PD mouse was explored using divided hemi-dissection preparations so that neurons are exposed for only half the area of an opened small intestinal segment. In this experiment, the inquiry was whether squalamine influenced the activity of the IPAN through direct interaction or indirectly, by stimulating release of epithelial mediators that influenced IPAN behaviour. Addition of squalamine (30 μM) to Krebs buffer in either the epithelial or the myenteric plexus compartments of the divided hemi-dissection preparation increased IPAN excitability. […] Addition of squalamine decreased the area under the curve of the sAHP by 77% from 86.8±88.2 to 20.3±25.3 mV·s, and depolarised RMP by 12% from −62±7 to −54±6 mV.

[5] = test system: colonic propagating contractile clusters (PCCs); test: Ex vivo colon motility with intraluminal squalamine, control mouse strains
Experimental: Ex vivo colon motility: For the ex vivo colonic motility experiments, the colon was excised and placed within an organ-bath perfusion chamber filled with warmed, oxygenated Krebs buffer or physiological saline (35° C., 95% 02, 5% CO2). The colon was flushed and cannulated at the oral and anal ends to a manifold and syringe to allow inflow of oxygenated Krebs buffer (or physiological saline) or Krebs and squalamine and to maintain intraluminal pressure. The height of the inflow tube at baseline measurements was parallel to the height of the colon in the organ bath (1.1 cm). Mechanical threshold defined an inflow pressure great enough to generate a contraction in under 30 sec (1.8 cm). Recordings in the first portion of the study were measured at a mechanical threshold causing a pressure differential of 2 hPa (cm H2O). Inflow was raised 2-3 hPa above baseline and outflow was raised a minimum of 0.2 hPa above inflow. Motor patterns were recorded using a Microsoft LifeCam 3000 web camera or a Logitech Quickcam Pro camera positioned 7-8 cm above the tissue. Videos were recorded during a 20-minute Krebs control and a 20-minute Krebs+squalamine period in which solutions were added to the inflow syringe.
Spatiotemporal Maps: Video recordings were used to construct spatiotemporal maps (STmaps) using edge detection software. Parameters of motor patterns including, velocity, amplitude, and frequency were measured using ImageJ and Matlab (Version 12) software.
Statistical Analysis: Effects of squalamine on motility and IPAN excitability in WT and PD model mice were assessed in paired experiments following Krebs control and subsequent squalamine exposure. Unpaired comparisons were performed for experiments comparing PD control and PD model strains. Percent difference was calculated by (treatment-control)/control. Data are presented as mean±SEM. Ex vivo statistical comparisons were performed using paired or unpaired, two-tailed t-tests or 1-way ANOVA using Graphpad Prism software (Version 7.0). In vivo studies were analysed using 1-way and 2-way ANOVA. Statistical significance was determined when p<0.05.

A53T and WT mice = test: In vivo fecal pellet output; parameters: species or system mouse
Experimental: In vivo fecal pellet output: Mice were subjected to the FPO test 1 day prior to the start of dosing with squalamine or vehicle (sterile water) (day 0). Mice were fasted for one hour and then given access to food one hour before FPO testing. On days 1-5 mice were fasted for one hour prior to oral gavage with vehicle or 20, 40, 80, or 120 mg/kg squalamine. Oral gavage occurred between 10:00 to 11:00 am daily. On day 5, the FPO test was performed 1 hour after the final dose was administered. Total number of stool pellets produced in the first 15 min and over a 60 min period was measured in each group. Stool water content was measured by comparing wet and dry weights of the stool.
In Vivo Fecal Pellet Output: Feeding of squalamine increased fecal pellet output, without substantially increasing water content, in vivo. To extend the ex vivo studies to the animal, both A53T and WT mice (N=10 mice/group/dose) were administered squalamine orally by gavage for 5 days (Day 1 to Day 5), at a range of doses from 0, 20, 40, 80 and 120 mg/kg. Fecal pellet output (FPO) within the first 15 minutes was measured following the gavage of vehicle control (on Day 0) or squalamine (on Day 5, at doses of 0, 20, 40, 80, and 120 mg/kg). There was no significant difference in the FPO in the first 15 min in WT and A53T mice between Days 0 and 5, in the groups receiving only vehicle (P>0.05). […] An increase in colonic motility should decrease the time of the stool within the colon and thereby increase the moisture content of the fecal pellets. […] Thus, squalamine appears to increase colonic transit in vivo.

[6] = test system: individuals with mild constipation; conditions: cited from earlier work

In the case of `CCCCC(F)(F)[C@@]1(O)CC[C@H]2[C@@H](CC(=O)[C@@H]2CCCCCCC(=O)O)O1` [Lubiprostone], the “share of treated in whom effective” value (PD population) is given as “about 50%”.
For `CC(C)[C@@H](CC[C@@H](C)[C@H]1CC[C@H]2[C@@H]3[C@H](O)C[C@H]4C[C@@H](NCCCNCCCCN)CC[C@]4(C)[C@H]3CC[C@]12C)OS(=O)(=O)O.C[C@H](O)C(=O)O.O` [squalamine lactate], the AUCInf [1] was 7863 ng·h/mL, the “AUC_% Extrap_obs” value [1] was 32.7% and the AUClast [1] was 5296 ng·h/mL. For the same compound, the AUClast/D [1] was 10600 kg·ng·h/mL/mg, the Cmax [1] was 1001 ng/mL and the MRTInf_obs [1] was 7.12 h. For the same compound, the T1/2 [1] was 4.55 h, the Tmax [1] was 1.00 h and the “presence in CSF” value [2] was “No squalamine lactate or Aminosterol 1436 was found in CSF”.
For `CC(C)[C@@H](CC[C@@H](C)[C@H]1CC[C@H]2[C@@H]3[C@H](O)C[C@H]4C[C@@H](NCCCNCCCCN)CC[C@]4(C)[C@H]3CC[C@]12C)OS(=O)(=O)O` [squalamine], the mean prokinetic dose [3] was 120 mg, the “decrease of AP threshold” value ([4]; added to the epithelium) was 44% and the “decrease of sAHP AUC” value ([4]; added to the epithelium) was 77%. For the same compound, the “increase of number of APs at 2× threshold current” value ([4]; added to the epithelium) was 87%, the “number of APs at 2× threshold current” value ([4]; added to the epithelium, before 1.6±0.6) was 3.1±0.7 and the “decrease of AP threshold” value ([4]; added to the myenteric plexus) was 37%. For the same compound, the “decrease of sAHP AUC” value ([4]; added to the myenteric plexus) was 87%, the “number of APs at 2× threshold current” value ([4]; added to the myenteric plexus, before 1.4±0.5) was 4.4±2.8 and the “area under the curve of the sAHP” value ([4]; added to the myenteric plexus, before −71.9±60.1) was −9.6±15.1 mV·s. For the same compound, the “increase of PCC velocity” value ([5]; C57BL/6 (P<0.05)) was 38%, the “increase of PCC amplitude” value ([5]; C57BL/6 (P=0.27)) was 1% and the “increase of PCC frequency” value ([5]; C57BL/6 (P=0.27)) was 51%. For the same compound, the PCC frequency ([5]; C57BL/6, control 0.007±0.001) was 0.010±0.003 Hz, the PCC amplitude ([5]; C57BL/6, control 0.66±0.06) was 0.70±0.07 cm and the PCC velocity ([5]; C57BL/6, control 1.31±0.10) was 1.80±0.20 mm/s. The “increase of PCC velocity” value ([5]; CD-1 (P<0.01)) was 81%, the “increase of PCC frequency” value ([5]; CD-1 (P=0.06)) was 63% and the “increase of PCC amplitude” value ([5]; CD-1 (P=0.56)) was 12%. For the same compound, the “increase of PCC velocity” value ([5]; Swiss Webster (P<0.0001)) was 45%, the “increase of PCC frequency” value ([5]; Swiss Webster (P<0.01)) was 35% and the “decrease of PCC amplitude” value ([5]; Swiss Webster (P=0.65)) was 3%. The stool water content (A53T and WT mice; A53T mice, 80 and 120 mg/kg (P=0.023 and 0.0004)) was “significantly increased water content”, the “FPO in the first 15 min, Day 5 versus Day 0” value (A53T and WT mice; A53T mice, oral gavage 5 days, 20, 40 and 80 mg/kg (P<0.005, P<0.0001, P<0.01)) was “significantly increased FPO” and the fecal pellet output (A53T and WT mice; PD and wild type mice, 40 mg/kg/d for 5 days) was “increased their fecal pellet output”. For the same compound, the stool water content (A53T and WT mice; WT mice, 80 mg/kg (P=0.025)) was “significantly increased water content” and the “FPO in the first 15 min, Day 5 versus Day 0” value (A53T and WT mice; WT mice, oral gavage 5 days, 40 and 120 mg/kg (P<0.01 and P<0.05)) was “significantly increased FPO”.
In the case of “polyethylene glycol [polyethylene glycol (Magrogol)]”, the “stool frequency and consistency” value [6] is given as “shown to provide benefit”.
